Like-named read-outs stand apart in the source and are kept apart here.
How the values were obtained:
[1] = system: HIV-1 (IIIB) in MT-4 cells; test: MT-4 HIV assay; type: cell-based; conditions: HIV-1 (IIIB), MT-4 cells, 5 days, Cell Titer Glo, read-out: EC50
Summary of the method: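 Antiviral activity was read by Cell Titer Glo after a 5-day, 37 °C culture of MT-4 cells pre-infected with a 1:250 dilution of HIV-1 (IIIB). Compounds were tested as threefold dilution series in complete RPMI. Controls were no drug, mock infection and 5 uM AZT.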

[2] = microsomes
Description: Liver Microsomal Stability Protocol
Test compounds and one control compound (verapamil) were tested in 3 different species in duplicate sets.
Test compound concentration: 1 uM; Protein concentration: 0.5 mg/mL (for dog, rat, and human liver microsomes); Cofactor: NADPH-Regenerating system (NRS) solution; Time-points: 2, 12, 25, 45, and 65 minutes.
Reaction composition (in each incubation well) contains:
After plates were vortexed, they were centrifuged for 30 minutes to remove proteins. About 100 μL supernatant was removed to a new plate and diluted with 150 μL water. About 20 μL of the mixture was injected into LC/MS/MS system to monitor the compound's response. In vitro measured t1/2 was used to calculate Clint values.

[3] = Human immunodeficiency virus 1, MT4, 120 h

| Molecule | EC50 [1, 3] [nM] | also measured |
| --- | --- | --- |
| COC(=O)N[C@H](C(=O)NN(Cc1c(F)cc(-c2ccn(CC(F)F)n2)cc1F)C[C@H](O)[C@H](Cc1ccc(C#Cc2ccc(N3CC4CCC(C3)N4C3COC3)nc2)cc1)NC(=O)[C@@H](NC(=O)OC)C(C)(C)C(F)(F)F)C(C)(C)C [Example 6, methyl ((5S,8S,9S,14S)-11-(4-(1-(2,2-difluoroethyl)-1H-pyrazol-3-yl)-2,6-difluorobenzyl)-9-hydroxy-15,15-dimethyl-8-(4-((6-(8-(oxetan-3-yl)-3,8-diazabicyclo[3.2.1]octan-3-yl)pyridin-3-yl)ethynyl)benzyl)-3,6,13-trioxo-5-(1,1,1-trifluoro-2-methylpropan-2-yl)-2-oxa-4,7,11,12-tetraazahexadecan-14-yl)carbamate] | 3.56 | Human Pred Cl. [2]: <0.11 L/H/kg; Rat. Pred. Cl. [2]: 0.22 L/H/kg |
| COC(=O)N[C@H](C(=O)NN(Cc1c(F)cc(-c2ccn(CC(F)F)n2)cc1F)C[C@H](O)[C@H](Cc1ccc(C#Cc2cnc(N3CC4CCC(C3)N4C3COC3)nc2)cc1)NC(=O)[C@@H](NC(=O)OC)C(C)(C)C(F)(F)F)C(C)(C)C [Example 7, methyl ((5S,8S,9S,14S)-11-(4-(1-(2,2-difluoroethyl)-1H-pyrazol-3-yl)-2,6-difluorobenzyl)-9-hydroxy-15,15-dimethyl-8-(4-((2-(8-(oxetan-3-yl)-3,8-diazabicyclo[3.2.1]octan-3-yl)pyrimidin-5-yl)ethynyl)benzyl)-3,6,13-trioxo-5-(1,1,1-trifluoro-2-methylpropan-2-yl)-2-oxa-4,7,11,12-tetraazahexadecan-14-yl)carbamate] | 3.61 | Human Pred Cl. [2]: <0.11 L/H/kg; Rat. Pred. Cl. [2]: 0.21 L/H/kg |
| COC(=O)N[C@H](C(=O)NN(Cc1ccc(-c2cnn(C(F)F)c2)cc1F)C[C@H](O)[C@H](Cc1ccc(C#Cc2ccc(N3CC4CCC(C3)N4C3COC3)nc2)cc1)NC(=O)[C@@H](NC(=O)OC)C(C)(C)C(F)(F)F)C(C)(C)C [Example 230, methyl ((5S,8S,9S,14S)-11-(4-(1-(difluoromethyl)-1H-pyrazol-4-yl)-2-fluorobenzyl)-9-hydroxy-15,15-dimethyl-8-(4-((6-(8-(oxetan-3-yl)-3,8-diazabicyclo[3.2.1]octan-3-yl)pyridin-3-yl)ethynyl)benzyl)-3,6,13-trioxo-5-(1,1,1-trifluoro-2-methylpropan-2-yl)-2-oxa-4,7,11,12-tetraazahexadecan-14-yl)carbamate] | 3.97 | – |
| COC(=O)N[C@H](C(=O)N[C@@H](Cc1ccc(C#Cc2ccc(N3CC4CCC(C3)N4C3COC3)nc2)cc1)[C@@H](O)CN(Cc1c(F)cc(-c2ccccn2)cc1Cl)NC(=O)[C@@H](NC(=O)OC)C(C)(C)CF)C(C)(C)CF [Example 234, methyl ((5S,8S,9S,14S)-11-(2-chloro-6-fluoro-4-(pyridin-2-yl)benzyl)-16-fluoro-5-(1-fluoro-2-methylpropan-2-yl)-9-hydroxy-15,15-dimethyl-8-(4-((6-(8-(oxetan-3-yl)-3,8-diazabicyclo[3.2.1]octan-3-yl)pyridin-3-yl)ethynyl)benzyl)-3,6,13-trioxo-2-oxa-4,7,11,12-tetraazahexadecan-14-yl)carbamate] | 2.54 | – |
| COC(=O)N[C@H](C(=O)N[C@@H](Cc1ccc(C#Cc2ccc(N3CC4CCC(C3)N4C3COC3)nc2)cc1)[C@@H](O)CN(Cc1ccc(-c2ccc(F)cn2)cc1F)NC(=O)[C@@H](NC(=O)OC)C(C)(C)C(F)(F)F)C(C)(C)C(F)(F)F [Example 235, methyl ((5S,8S,9S,14S)-16,16,16-trifluoro-11-(2-fluoro-4-(5-fluoropyridin-2-yl)benzyl)-9-hydroxy-15,15-dimethyl-8-(4-((6-(8-(oxetan-3-yl)-3,8-diazabicyclo[3.2.1]octan-3-yl)pyridin-3-yl)ethynyl)benzyl)-3,6,13-trioxo-5-(1,1,1-trifluoro-2-methylpropan-2-yl)-2-oxa-4,7,11,12-tetraazahexadecan-14-yl)carbamate] | 16.7 | – |
| COC(=O)N[C@H](C(=O)N[C@@H](Cc1ccc(C#Cc2ccc(N3CC4CCC(C3)N4CC(F)F)nc2)cc1)[C@@H](O)CN(Cc1c(F)cc(-c2ccccn2)cc1Cl)NC(=O)[C@@H](NC(=O)OC)C(C)(C)CF)C(C)(C)CF [Example 238, methyl ((5S,8S,9S,14S)-11-(2-chloro-6-fluoro-4-(pyridin-2-yl)benzyl)-8-(4-((6-(8-(2,2-difluoroethyl)-3,8-diazabicyclo[3.2.1]octan-3-yl)pyridin-3-yl)ethynyl)benzyl)-16-fluoro-5-(1-fluoro-2-methylpropan-2-yl)-9-hydroxy-15,15-dimethyl-3,6,13-trioxo-2-oxa-4,7,11,12-tetraazahexadecan-14-yl)carbamate] | 12.3 | – |
| COC(=O)N[C@H](C(=O)N[C@@H](Cc1ccc(C#Cc2ccc(N3CC4CCC(C3)N4C(C)C)nc2)cc1)[C@@H](O)CN(Cc1c(F)cc(-c2ccccn2)cc1F)NC(=O)[C@@H](NC(=O)OC)C(C)(C)C(F)(F)F)C(C)(C)C(F)(F)F [Example 240, methyl ((5S,8S,9S,14S)-11-(2,6-difluoro-4-(pyridin-2-yl)benzyl)-16,16,16-trifluoro-9-hydroxy-8-(4-((6-(8-isopropyl-3,8-diazabicyclo[3.2.1]octan-3-yl)pyridin-3-yl)ethynyl)benzyl)-15,15-dimethyl-3,6,13-trioxo-5-(1,1,1-trifluoro-2-methylpropan-2-yl)-2-oxa-4,7,11,12-tetraazahexadecan-14-yl)carbamate] | 5.62 | – |
| CCN1C2CCC1CN(c1ccc(C#Cc3ccc(C[C@H](NC(=O)[C@@H](NC(=O)OC)C(C)(C)C(F)(F)F)[C@@H](O)CN(Cc4c(F)cc(-c5ccccn5)cc4F)NC(=O)[C@@H](NC(=O)OC)C(C)(C)C(F)(F)F)cc3)cn1)C2 [Example 241, methyl ((5S,8S,9S,14S)-11-(2,6-difluoro-4-(pyridin-2-yl)benzyl)-8-(4-((6-(8-ethyl-3,8-diazabicyclo[3.2.1]octan-3-yl)pyridin-3-yl)ethynyl)benzyl)-16,16,16-trifluoro-9-hydroxy-15,15-dimethyl-3,6,13-trioxo-5-(1,1,1-trifluoro-2-methylpropan-2-yl)-2-oxa-4,7,11,12-tetraazahexadecan-14-yl)carbamate] | 6.57 | – |
| COC(=O)N[C@H](C(=O)N[C@@H](Cc1ccc(C#Cc2ccc(N3CC4CCC(C3)N4C)nc2)cc1)[C@@H](O)CN(Cc1c(F)cc(-c2ccccn2)cc1F)NC(=O)[C@@H](NC(=O)OC)C(C)(C)C(F)(F)F)C(C)(C)C(F)(F)F [Example 242, methyl ((5S,8S,9S,14S)-11-(2,6-difluoro-4-(pyridin-2-yl)benzyl)-16,16,16-trifluoro-9-hydroxy-15,15-dimethyl-8-(4-((6-(8-methyl-3,8-diazabicyclo[3.2.1]octan-3-yl)pyridin-3-yl)ethynyl)benzyl)-3,6,13-trioxo-5-(1,1,1-trifluoro-2-methylpropan-2-yl)-2-oxa-4,7,11,12-tetraazahexadecan-14-yl)carbamate] | 3.45 | – |
| COC(=O)N[C@H](C(=O)NN(Cc1ccc(-c2cnn(C(F)F)c2)cc1)C[C@H](O)[C@H](Cc1ccc(C#Cc2ccc(N3CC4CCC(C3)N4C3COC3)nc2)cc1)NC(=O)[C@@H](NC(=O)OC)C(C)(C)C(F)(F)F)C(C)(C)C [Example 243, methyl ((5S,8S,9S,14S)-11-(4-(1-(difluoromethyl)-1H-pyrazol-4-yl)benzyl)-9-hydroxy-15,15-dimethyl-8-(4-((6-(8-(oxetan-3-yl)-3,8-diazabicyclo[3.2.1]octan-3-yl)pyridin-3-yl)ethynyl)benzyl)-3,6,13-trioxo-5-(1,1,1-trifluoro-2-methylpropan-2-yl)-2-oxa-4,7,11,12-tetraazahexadecan-14-yl)carbamat] | 5.32 | – |
| COC(=O)N[C@H](C(=O)N[C@@H](Cc1ccc(C#Cc2ccc(N3CC4CCC(C3)N4C3COC3)nc2)cc1)[C@@H](O)CN(Cc1ccc(-c2ccccn2)cc1F)NC(=O)[C@@H](NC(=O)OC)C(C)(C)C(F)(F)F)C(C)(C)C(F)(F)F [Example 245, Methyl ((5S,8S,9S,14S)-16,16,16-trifluoro-11-(2-fluoro-4-(pyridin-2-yl)benzyl)-9-hydroxy-15,15-dimethyl-8-(4-((6-(8-(oxetan-3-yl)-3,8-diazabicyclo[3.2.1]octan-3-yl)pyridin-3-yl)ethynyl)benzyl)-3,6,13-trioxo-5-(1,1,1-trifluoro-2-methylpropan-2-yl)-2-oxa-4,7,11,12-tetraazahexadecan-14-yl)carbamate] | 3.59 | – |
| methyl ((5S,8S,9S,14S)-11-(2-chloro-6-fluoro-(pyridin-2-yl)benzyl)-16-fluoro-5-(1-fluoro-2-methylpropan-2-yl)-9-hydroxy-15,15-dimethyl-3,6,13-trioxo-8-(4-((6-(8-(2,2,2-trifluoroethyl)-3,8-diazabicyclo[3.2.1]octan-3-yl)pyridin-3-yl)ethynyl)benzyl)-2-oxa-4,7,11,12-tetraazahexadecan-14-yl)carbamate [Example 244] | – | EC50 [1]: 19.5 nM |

Reference: patent US10294234B2, “HIV inhibitor compounds” (priority 2017, dated 2019)
